# In patent publication US12152038B2, “Vasopressin receptor antagonists and products and methods related thereto” (Neumora Therapeutics, Inc., priority 2017, dated 2024):
# Where two headings read alike, the source gives them in different places.
# Legend:
# [1] = molecular target: T1, human Oxytocin Receptor (hOTR) (Homo sapiens, UniProt P30559); experiment: Oxytocin receptor (OTR) antagonist assay (FLIPR calcium, CHEM-1-hOTR cells); format: cell-based
# T1 construct: host or cells: CHEM-1 (ready-to-assay frozen cells)
# T1 sequence (P30559 1-389): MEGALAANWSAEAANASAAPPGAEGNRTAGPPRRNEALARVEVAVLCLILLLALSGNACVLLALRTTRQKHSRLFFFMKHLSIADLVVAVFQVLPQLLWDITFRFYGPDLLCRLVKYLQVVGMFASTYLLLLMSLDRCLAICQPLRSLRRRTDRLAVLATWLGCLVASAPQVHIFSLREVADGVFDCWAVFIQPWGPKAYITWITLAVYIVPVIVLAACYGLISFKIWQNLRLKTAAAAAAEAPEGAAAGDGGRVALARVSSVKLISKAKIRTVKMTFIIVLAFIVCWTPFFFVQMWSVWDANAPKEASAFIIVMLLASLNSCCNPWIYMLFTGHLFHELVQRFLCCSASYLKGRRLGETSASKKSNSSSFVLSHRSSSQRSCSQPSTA
# Outline: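 CHEM-1 cells expressing human OTR were loaded with Calcium-6 dye in HBSS/20 mM HEPES and preincubated with compound (10-point, 1:3 series) for 15 min at 37° C. Cells were then challenged with oxytocin at its daily-determined EC80. Calcium fluorescence was read on FLIPR for 3 min after each addition.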
# MDR1 (P-glycoprotein) = molecular target: T2, MDR1 (P-glycoprotein) (Homo sapiens, UniProt P08183); experiment: MDR1-MDCK permeability and efflux assay (Papp, efflux ratio, effective efflux ratio); format: in vitro ADME; details: dog; for Papp A→B at 1 h, 10 μM: pH 7.4, read-out: Papp AB MDR1
# T2 construct: host or cells: MDCK (MDR1-MDCK; wild-type MDCK as comparator)
# T2 sequence (P08183 whole entry): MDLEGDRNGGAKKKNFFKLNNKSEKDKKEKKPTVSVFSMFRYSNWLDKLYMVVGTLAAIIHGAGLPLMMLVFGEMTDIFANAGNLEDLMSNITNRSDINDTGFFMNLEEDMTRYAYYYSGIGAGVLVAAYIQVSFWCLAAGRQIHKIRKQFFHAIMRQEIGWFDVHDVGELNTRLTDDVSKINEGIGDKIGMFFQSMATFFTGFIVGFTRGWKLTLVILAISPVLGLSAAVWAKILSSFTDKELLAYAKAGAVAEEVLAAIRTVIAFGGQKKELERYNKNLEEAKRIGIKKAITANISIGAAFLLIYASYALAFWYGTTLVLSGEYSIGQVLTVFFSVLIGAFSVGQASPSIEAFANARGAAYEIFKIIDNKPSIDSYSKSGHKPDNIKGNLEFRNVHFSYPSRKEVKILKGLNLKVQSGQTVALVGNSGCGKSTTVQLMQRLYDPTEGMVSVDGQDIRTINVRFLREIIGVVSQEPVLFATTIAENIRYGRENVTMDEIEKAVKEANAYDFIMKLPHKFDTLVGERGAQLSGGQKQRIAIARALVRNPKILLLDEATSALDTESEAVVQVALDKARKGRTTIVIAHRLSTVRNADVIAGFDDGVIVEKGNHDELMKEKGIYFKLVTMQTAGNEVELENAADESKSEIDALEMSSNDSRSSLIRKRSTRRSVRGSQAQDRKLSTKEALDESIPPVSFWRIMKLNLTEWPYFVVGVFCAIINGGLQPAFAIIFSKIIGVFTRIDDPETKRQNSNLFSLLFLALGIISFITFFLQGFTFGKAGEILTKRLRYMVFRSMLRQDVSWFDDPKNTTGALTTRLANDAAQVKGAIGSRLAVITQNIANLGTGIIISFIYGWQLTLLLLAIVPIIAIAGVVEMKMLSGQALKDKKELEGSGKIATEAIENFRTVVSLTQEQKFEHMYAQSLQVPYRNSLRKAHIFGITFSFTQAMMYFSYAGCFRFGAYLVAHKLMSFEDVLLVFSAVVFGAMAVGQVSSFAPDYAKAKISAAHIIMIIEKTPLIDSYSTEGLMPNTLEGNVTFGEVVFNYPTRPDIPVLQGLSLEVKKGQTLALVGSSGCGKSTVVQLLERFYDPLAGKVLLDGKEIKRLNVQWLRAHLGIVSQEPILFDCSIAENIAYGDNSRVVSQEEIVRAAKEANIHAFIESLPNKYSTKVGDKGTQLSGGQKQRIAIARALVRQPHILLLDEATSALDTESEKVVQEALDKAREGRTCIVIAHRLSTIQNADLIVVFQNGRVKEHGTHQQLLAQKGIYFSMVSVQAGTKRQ
# Outline: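 Confluent WT or MDR1-MDCK monolayers (3-day culture) dosed with 10 μM compound, 0.1% DMSO, in HBSS/25 mM HEPES pH 7.4, A>B and B>A, 1 h at 37 °C; LC-MS/MS quantitation. Papp from acceptor/donor ratio; efflux ratio = Papp B>A/A>B; EER = ER(MDR1)/ER(WT).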
# [2] = MDCK-MDR1, pH 7.4, ER(MDR1-MDCK)/ER(wild-type MDCK), read-out: EER (Effective Efflux Ratio)
# [3] = MDCK-MDR1, pH 7.4, Papp B>A/Papp A>B, MDR1-MDCK cells, read-out: ER MDR1 (Efflux Ratio)
IC50 [1] [nM],"efflux ratio at 1 h, 10 μM (MDR1 (P-glycoprotein); [2])","efflux ratio at 1 h, 10 μM (MDR1 (P-glycoprotein); [3])","Papp A→B at 1 h, 10 μM (MDR1 (P-glycoprotein); MDR1-MDCK cells) [×10⁻⁶ cm/s]",SMILES
< 100,,,,"CCC1COc2cc(Cl)ccc2N1C(=O)N1CC2(C1)CN(c1ccc(F)cn1)C2 (single isomer, unassigned) [1-55-B]"
< 100,1 to 2,1 to 2,> 20,"CC1COc2cc(Cl)ccc2N1C(=O)N1CC2(C1)CN(c1cnccn1)C2 (single isomer, unassigned) [1-58-B]"
100 to 500,1 to 2,1 to 2,> 20,"COc1ccc2c(c1)OCC(C)N2C(=O)N1CC2(C1)CN(c1ccc(F)cn1)C2 (single isomer, unassigned) [1-59-B]"
< 100,1 to 2,< 1,> 20,"CC1COc2cc(Cl)ccc2N1C(=O)N1CC2(C1)CN(c1ccccn1)C2 (single isomer, unassigned) [1-60-B]"
100 to 500,< 1,1 to 2,> 20,"CC1COc2cc(F)ccc2N1C(=O)N1CC2(C1)CN(c1cnccn1)C2 (single isomer, unassigned) [1-65-B]"
100 to 500,,,,"CC1COc2cc(F)ccc2N1C(=O)N1CC2(C1)CN(c1ccccn1)C2 (single isomer, unassigned) [1-66-B]"
100 to 500,,,,"CC1COc2cc(F)ccc2N1C(=O)N1CC2(C1)CN(c1ncccc1F)C2 (single isomer, unassigned) [1-67-A]"
< 100,,,,"CC1COc2cc(Cl)ccc2N1C(=O)N1CC2(C1)CN(c1ccc(F)cn1)C2 (single isomer, unassigned) [1-73-B]"
≥ 1000,,,,"O=C(N1CC2(C1)CN(c1ccc(F)cn1)C2)N1CCC(O)c2cc(Cl)ccc21 (single isomer, unassigned) [13-1-B]"
100 to 500,< 1,< 1,> 20,"CC1COc2cc(Cl)ccc2N1C(=O)N1CC2(C1)CN(c1ncc(F)cn1)C2 (single isomer, unassigned) [18-2-B]"
,1 to 2,1 to 2,> 20,"Cc1cnc(N2CC3(CN(C(=O)N4c5ccc(Cl)cc5OCC4C)C3)C2)nc1 (single isomer, unassigned) [20-13-B]"
500 to 1000,1 to 2,< 1,> 20,"CC1COc2cc(Cl)ccc2N1C(=O)N1CC2(C1)CN(c1nn(C)c3ncccc13)C2 (single isomer, unassigned) [20-15-B]"
500 to 1000,,,,Cc1cccc(N2CC3(CN(C(=O)N4CCOc5cc(Cl)ccc54)C3)C2)n1 [1-3]
,< 1,< 1,> 20,O=C(N1CC2(C1)CN(c1cnc(F)cn1)C2)N1CCOc2cc(Cl)ccc21 [1-18]
≥ 1000,1 to 2,1 to 2,> 20,Cc1cncc(N2CC3(CN(C(=O)N4CCOc5cc(Cl)ccc54)C3)C2)n1 [1-22]
500 to 1000,,,,Cc1nc(N2CC3(CN(C(=O)N4CCOc5cc(Cl)ccc54)C3)C2)ccc1F [1-30]
100 to 500,,,,N#Cc1cccc(N2CC3(CN(C(=O)N4CCOc5cc(Cl)ccc54)C3)C2)n1 [1-39]

IC50 [1] [nM],"efflux ratio at 1 h, 10 μM (MDR1 (P-glycoprotein); [2])","efflux ratio at 1 h, 10 μM (MDR1 (P-glycoprotein); [3])","Papp A→B at 1 h, 10 μM (MDR1 (P-glycoprotein); MDR1-MDCK cells) [×10⁻⁶ cm/s]",SMILES
≥ 1000,,,,O=C(N1CC2(C1)CN(c1cc(F)cc(F)n1)C2)N1CCOc2cc(Cl)ccc21 [1-51]
< 100,< 1,< 1,> 20,CC1COc2cc(Cl)ccc2N1C(=O)N1CC2(C1)CN(c1ccccn1)C2 (centres unmarked) [1-60]
,1 to 2,1 to 2,> 20,O=C(N1CC2(C1)CN(c1ccc(F)cn1)C2)N1CCOc2cc(F)ccc21 [1-64]
100 to 500,,,,CC1COc2cc(F)ccc2N1C(=O)N1CC2(C1)CN(c1ncccc1F)C2 (centres unmarked) [1-67]
≥ 1000,,,,O=C(N1CC2(C1)CN(c1cccc(F)n1)C2)N1CCOc2cc(Cl)ccc21 [1-69]
≥ 1000,< 1,1 to 2,> 20,O=C(N1CC2(C1)CN(c1cc(F)ccn1)C2)N1CCOc2cc(Cl)ccc21 [1-70]
,> 3,1 to 2,> 20,O=C(N1CC2(C1)CN(c1cccnn1)C2)N1CCOc2cc(Cl)ccc21 [1-71]
,1 to 2,< 1,> 20,O=C(N1CC2(C1)CN(c1cccnc1)C2)N1CCOc2cc(Cl)ccc21 [1-72]
500 to 1000,2 to 3,1 to 2,7 to 10,"CC1COc2cc(Cl)ccc2N1C(=O)N1CC2(C1)CN(c1noc3ccccc13)C2 (centres unmarked) [21-1, (6-(benzo[d]isoxazol-3-yl)-2,6-diazaspiro[3.3]heptan-2-yl)(7-chloro-3-methyl-2,3-dihydro-4H-benzo[b][1,4]oxazin-4-yl)methanone]"
100 to 500,1 to 2,1 to 2,> 20,CC1COc2cc(Cl)ccc2N1C(=O)N1CC2(C1)CN(c1ncccc1C#N)C2 (centres unmarked) [21-2]
< 100,1 to 2,1 to 2,> 20,Cc1cncc(N2CC3(CN(C(=O)N4c5ccc(Cl)cc5OCC4C)C3)C2)n1 (centres unmarked) [21-3]
500 to 1000,> 3,> 3,> 20,Cc1cnnc(N2CC3(CN(C(=O)N4c5ccc(Cl)cc5OCC4C)C3)C2)c1 (centres unmarked) [21-4]
100 to 500,< 1,1 to 2,> 20,CC1COc2cc(Cl)ccc2N1C(=O)N1CC2(C1)CN(c1ncncc1F)C2 (centres unmarked) [21-5]
100 to 500,2 to 3,< 1,> 20,CC1COc2cc(Cl)ccc2N1C(=O)N1CC2(C1)CN(c1ccncn1)C2 (centres unmarked) [21-6]
100 to 500,2 to 3,1 to 2,> 20,Cc1nccc(N2CC3(CN(C(=O)N4c5ccc(Cl)cc5OCC4C)C3)C2)n1 (centres unmarked) [21-8]
≥ 1000,,,,CCc1cnc(N2CC3(CN(C(=O)N4c5ccc(Cl)cc5OCC4C)C3)C2)nc1 (centres unmarked) [21-9]
500 to 1000,1 to 2,1 to 2,10 to 20,CC1COc2cc(Cl)ccc2N1C(=O)N1CC2(C1)CN(c1nccc(C(F)(F)F)n1)C2 (centres unmarked) [21-10]
